By IC50 is commonly meant the concentration that gives 50% inhibition.

One experiment concerns HeLa. Description: Cytotoxicity against human HeLa cells by SRB method. The format is functional, cell-based. A general note: The SRB assay estimates cell density from bound dye.
A further experiment has as its system A549. In words: Cytotoxicity against human A549 cells by SRB method.
Another experiment relates to HCT-116. In words: Cytotoxicity against human HCT116 cells by SRB method.
The test system of another experiment is K562. Description: Cytotoxicity against human K562 cells by MTT method. The format is functional, cell-based. In general terms: Formazan colour is commonly taken as a measure of viable cells.
For another experiment, the system named is MCF7. In words: Cytotoxicity against human MCF7 cells by SRB method. The format is functional, cell-based.
The test system of another experiment is HL-60. In words: Cytotoxicity against human HL60 cells by MTT method.

Consider `CC[C@H](C)/C=C/C=C(\C)C[C@@H](C)/C=C/C=C/[C@H]1OC(=O)C=C[C@]1(C)O`, for which the IC50 with HeLa worked out at 5.5 µM; in the experiment with A549, 5.1 µM; in the experiment on HCT-116 it was 1.4 µM; with K562 it was 2.9 µM; with MCF7, 9.8 µM; with HL-60 it was 1.2 µM.
In the case of `CC[C@@H](/C=C/C=C(\C)C[C@@H](C)/C=C/C=C/[C@@H]1O[C@@H](C(=O)OC)[C@@H]2O[C@]12C)CO`, the IC50 in the experiment with HeLa, in the experiment on A549, in the experiment on HCT-116, in the experiment on K562, with MCF7 and in the experiment with HL-60 was more than 50 µM throughout.
For the molecule `COc1cccc2c1C(=O)c1c(O)c3c(c(O)c1C2=O)C[C@@](O)(C(=O)CO)C[C@@H]3O[C@H]1C[C@H](N)[C@H](O)[C@H](C)O1` [DOXORUBICIN], the IC50 in the experiment on HeLa stood at 0.5 µM; in the experiment on K562 it was 0.6 µM; with MCF7, 0.6 µM.
In the case of `CC[C@H](C)/C=C/C=C(\C)C[C@@H](C)/C=C/C=C/[C@@H]1O[C@@H](C(=O)OC)[C@@H]2O[C@]12C`, the IC50 in the experiment with HeLa, in the experiment on A549, in the experiment on HCT-116, in the experiment on K562, with MCF7 and in the experiment with HL-60 was more than 50 µM each time.
For `CC[C@H](C)/C=C/C=C(\C)C[C@@H](C)/C=C/C=C/[C@H]1OC(=O)[C@H](O)[C@@H]2O[C@]12C`, the IC50 with HeLa, in the experiment with A549, in the experiment with HCT-116, in the experiment with K562, with MCF7 and in the experiment with HL-60 was more than 50 µM in each case.
As for `COC(=O)[C@@H]1O[C@@H](/C=C/C=C/[C@H](C)C/C(C)=C/C=C/[C@@H](C)CCO)[C@@]2(C)O[C@@H]12`, the IC50 in the experiment with HeLa, with A549, with HCT-116, with K562, in the experiment with MCF7 and with HL-60 was more than 50 µM throughout.
